According to patent US20260166065A1 (priority 2023, published 2026):

Biological target: PA-IL (lectin A, Lec A) (Pseudomonas aeruginosa, UniProt Q05097)
Assay: Lectin histochemistry: D-galactose blocking of biotinylated PA-IL binding to human respiratory epithelia, in relation to storage time of the sugar solution
Details: for PA-IL lectin binding at the cilia of human respiratory epithelia in presence of D-galactose: 5 μg/ml PA-IL
Description: Tissue preparation and lectin histological staining has been described (Schreiber et al. (2014) Anticancer Res. 34 (12): 7045-53). Five μm thick sections of human airway epithelium were applied to Adhesion Micro Slides (Histo Bond®; Marienfeld GmbH, Lauda-Königshofen Germany). Slides were deparaffinized and rehydrated through a series of graded ethanol to distilled water. […] Deparaffinized sections were briefly incubated in lectin buffer (LB) consisting of tris-buffered saline (TBS contained Trizma Base, 50 mM Tris; Sigma, Steinheim, Germany), sodium chloride (150 mM; J. T. Baker, Deventer, the Netherlands) and hydrochloric acid (Merck, Darmstadt, Germany) in distilled water (adjusted to pH 7.6) with addition of 1% MgCl2 and 1% CaCl2) (Merck, Darmstadt Germany). Sections were then treated with 0.1% trypsin (Biochrom KG, Berlin, Germany) dissolved in LB and incubated for 10 min at 37° C. To stop the digestion of the sections with trypsin, the sections were washed in running tap water for 5 min. […] This step was followed by three washes (5 min each) in TBS. Afterwards the sections were incubated with alkaline phosphatase streptavidin complex (Vectastain® ABC-Kit; Vector Laboratories) in a humid chamber for 30 min. After final three rinsings (5 min each) in TBS, sections were transferred into the visualizing mixture containing naphthol-AS-biphosphate, hexatozised new fuchsin, dimethylformamide and tween 20 (all from Sigma-Aldrich Chemie, Darmstadt, Germany) applied in the dark for 20 min to visualize enzyme reactivity. To stop the enzyme reaction, the sections were washed in running tap water (7 min) and were then transferred into distilled water (2 min). Counterstaining was performed using Mayer's hemalum (Merck). The sections were dehydrated and subsequently covered using a resinous permanent mounting medium (Eukitt, Kindler GmbH, Freiburg, Germany). Slides were first evaluated using a ZEISS Axiophot 2 microscope (Carl Zeiss, Jena, Germany). Digital images were obtained with a ZEISS Axio Scan Z1 slide scanner equipped with a ZEISS EC Plan-Neofluar 20×/0.50 Pol M27 objective (Carl Zeiss, Jena, Germany) and a Hitachi HV-F20SCL camera with 1600×1200 pixels (Hitachi Kokusai Electric America Ltd., New York, USA). For image acquisition ZEISS ZEN 2.3 software was used (Carl Zeiss, Jena, Germany). Images were further processed with netScope Viewer software (Net-Base Software, Freiburg, Germany).
For the PA-IL blocking experiments, 10 μg/ml PA-IL solution dissolved in LB was incubated 1:1 with a freshly prepared D-galactose solution (Merck, Darmstadt) for 30 min resulting in a final 5 μg/ml PA-IL solution before applying the mixture to the sections. The final concentration of D-galactose in solution ranged from 0.3 mM to 0.0375 mM D-galactose.
To analyze the loss of D-galactose activity to block PA-IL tissue binding in relation to storage time in an aqueous solution, D-galactose was dissolved in water and then stored for different durations (for 0, 40, 80, 160, 320 minutes as well as 12 and 24 h). After storage D-galactose was mixed with the PA-IL solution and used to incubate human respiratory epithelial tissue samples as described previously.

Sequence of PA-IL (lectin A, Lec A) (Q05097 whole entry): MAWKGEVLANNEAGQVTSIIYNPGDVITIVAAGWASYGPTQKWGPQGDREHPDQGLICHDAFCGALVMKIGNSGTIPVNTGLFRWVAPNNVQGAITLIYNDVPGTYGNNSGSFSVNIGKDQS

## O=C[C@H](O)[C@@H](O)[C@@H](O)[C@H](O)CO [D-galactose]
0.0375 mM D-galactose stored 80 minutes in water, FIG. 8
  PA-IL lectin binding at the cilia of human respiratory epithelia in presence of D-galactose: significantly reduced, but not completely abolished
After 80 minutes storage time in aqueous solution
  PA-IL blocking activity of aqueous D-galactose solution: nearly abolished
Freshly dissolved 0.0375 mM D-galactose, time point 0, FIG. 7
  PA-IL lectin binding at the cilia of human respiratory epithelia in presence of D-galactose: abolished
Freshly prepared solution
  PA-IL blocking efficacy of aqueous D-galactose solution: significant blocking activity
Storage in aqueous solution
  period of storage in aqueous solution over which PA-IL blocking efficacy is lost: approximately 80 minutes
